Experimental data reported in the SangsterLogP compilation.

Assays:
[1] = not given; remark: listed apart in the source
[2] = method code SF-HPLC, from PMID: 1515051; conditions: pH 6.0
[3] = method code SF-AS, from Schaper, J. (1979). Simultaneous determination of electronic and lipophilic properties of acids and bases by nonlinear regression analysis of pH-dependent partition measurements. J. Chem. Research …
[4] = not given; remark: listed apart in the source
[5] = not given; remark: listed apart in the source
[6] = method code SF-AS/HPLC, from Ellington, J. J. (1988). Octanol/water partition coefficients for evaluation of hazardous waste land disposal: Selected chemicals. US Environmental Protection Agency, Environmental Research …
[7] = method code SF, from DOI: 10.1023/a:1016286026462, PMID: 8570535
[8] = not given; remark: listed apart in the source
[9] = not given; remark: listed apart in the source
[10] = not given; remark: listed apart in the source
[11] = method code SF, from DOI: 10.1021/jm00114a024, PMID: 1920362
[12] = not given; remark: listed apart in the source
[13] = not given; remark: listed apart in the source
[14] = method code RP-HPLC, from DOI: 10.2166/wqrj.1987.010; conditions: pH 7.0
[15] = method code SF-ESR, from DOI: 10.1515/znc-1987-7-832, PMID: 2961152
[16] = not given; remark: listed apart in the source
[17] = method code SF-AS, from Busch, N.; Moleyre, J.; Bondivenne, R.; Labrid, C. (1973). Study of the predictive value of the Hansch correlation equations for a series of beta-alkoxy-beta-phenylethyl pyrrolidines. Chimica …
[18] = method code SF-AS, from DOI: 10.1248/cpb.32.4084, PMID: 6099228; conditions: pH 7.4
[19] = method code SF-HPLC, from DOI: 10.1016/j.ejpb.2006.11.002, PMID: 17182232; conditions: pH 7.4
[20] = method code SF-HPLC, from DOI: 10.1002/ps.2780170106
[21] = from Sparatore, F.; Grieco, C.; Silipo, C.; Vittoria, A. (1979). Use of regression analysis to correlate auxin activity with chemical physical and structural properties of benzotriazole derivatives. III. …; conditions: pH 5.6
[22] = not given; remark: listed apart in the source
[23] = not given; remark: listed apart in the source
[24] = method code SF, from DOI: 10.1021/jm00237a002, PMID: 1133810; conditions: pH 7.2
[25] = not given; remark: listed apart in the source

Q: Which logP does the source give for `CS(=O)(=O)c1ccc([C@@H](O)[C@@H](CO)NC(=O)C(Cl)Cl)cc1` here?
A: The logP was 0.15.

Q: Which logP [1] does the source give for `S=C=NCc1ccc2ccccc2c1` here?
A: Its logP is 4.42.

Q: Which logD [2] does the source give for `CC(C)COC(=O)n1c(-c2cscn2)nc2ccccc21` here?
A: Its logD is 3.46.

Q: For `Cc1ccc(NS(=O)(=O)c2ccc(N)cc2)cc1`, which logP [3] is on record?
A: The logP was 2.11.

Q: With `Clc1cc2c(c(Cl)c1Cl)Oc1c(Cl)c(Cl)c(Cl)c(Cl)c1O2` as the compound, how does the logP [4] read?
A: Its logP is 8.2.

Q: Which logP [5] does the source give for `COc1ccc2nc(C3=N[C@@H](C(=O)O)CS3)sc2c1` here?
A: Its logP is 1.16.

Q: Which logP [6] does the source give for `C/C=C(/C)C(=O)O[C@H]1CCN2CC=C(COC(=O)[C@@](O)([C@H](C)OC)C(C)(C)O)[C@H]12` here?
A: The logP was 1.28.

Q: For `COc1ccc(C=CC(=O)OCCC(C)C)cc1`, which logP [7] is on record?
A: The logP was 4.83.

Q: With `Clc1ccc(-c2ccc(Cl)cc2Cl)cc1` as the compound, how does the logP [8] read?
A: Its logP is 5.62.

Q: With `Clc1ccccc1C(c1ccccc1)(c1ccccc1)n1ccnc1` as the compound, how does the logP read?
A: The logP was 4.75.

Q: For `CCC1(c2ccccc2)C(=O)NC(=O)N(C(C)C)C1=O` (configuration not stated), which logP [9] is on record?
A: Its logP is 2.58.

Q: With `Nc1ccc(S(=O)(=O)Nc2ccc(S(N)(=O)=O)cc2)cc1` as the compound, how does the logP [10] read?
A: The logP was 0.35.

Q: For `CNCCN(C)S(=O)(=O)c1ccc(CONC(N)=O)c([N+](=O)[O-])c1`, which logP [11] is on record?
A: The logP was 0.45.

Q: Which logP [12] does the source give for `c1ccc2c(c1)ccc1cc3ccc4ccccc4c3nc12` here?
A: Its logP is 6.42.

Q: For `Clc1cc2oc3c(Cl)c(Cl)c(Cl)cc3c2cc1Cl`, which logP [13] is on record?
A: Its logP is 6.31.

Q: For `Cc1cc(Cl)ccc1OCC(=O)OCCCCCC(C)C`, which logD [14] is on record?
A: Its logD is 6.69.

Q: With `CC1(C)CC(NC(=O)N(CCCl)N=O)CC(C)(C)N1[O]` as the compound, how does the logP [15] read?
A: The logP was 1.6.

Q: With `CNC(=O)Oc1cc(C)c(N(C)C)c(C)c1` as the compound, how does the logP [16] read?
A: Its logP is 2.56.

Q: Which logP [5] does the source give for `COC(=O)[C@H]1CSC(c2nc3ccc(O)cc3s2)=N1` here?
A: The logP was 2.23.

Q: With `Oc1cc(Cl)ccc1Oc1ccc(Cl)cc1Cl` as the compound, how does the logP [7] read?
A: Its logP is 4.53.

Q: Which logP [8] does the source give for `Clc1ccccc1-c1ccccc1Cl` here?
A: Its logP is 4.8.

Q: With `CN(C)c1ccc(NS(=O)(=O)c2ccc(N)cc2)cc1` as the compound, how does the logP [3] read?
A: Its logP is 1.57.

Q: For `OC(CN1CCCC1)c1ccccc1` (configuration not stated), which logP [17] is on record?
A: The logP was 1.38.

Q: For `O=C(CN1CCCCC1)Nc1ccc(Cl)c(Cl)c1`, which logD [18] is on record?
A: Its logD is 3.65.

Q: For `COC(=O)C(NC(=O)c1cccnc1)n1cc(F)c(=O)[nH]c1=O` (configuration not stated), which logD [19] is on record?
A: The logD was -0.12.

Q: With `Clc1cccc2c1Oc1ccccc1O2` as the compound, how does the logP [4] read?
A: Its logP is 4.75.

Q: Which logD ([20]; pH 2.0) does the source give for `O=C(O)CCOc1cccc2ccccc12` here?
A: Its logD is 3.

Q: With `OCCCCCCn1nc2ccccc2n1` as the compound, how does the logD [21] read?
A: Its logD is 2.26.

Q: With `CNC(=O)Oc1cccc2c1OC(C)(C)C2` as the compound, how does the logD [14] read?
A: Its logD is 1.88.

Q: Which logP [16] does the source give for `CCOP(=S)(OCC)SCSc1ccc(Cl)cc1` here?
A: Its logP is 4.53.

Q: With `CCOC(=O)C(NC(=O)c1cccnc1)n1cc(F)c(=O)[nH]c1=O` (configuration not stated) as the compound, how does the logD [19] read?
A: Its logD is 0.21.

Q: With `CC(C)(C)NC(=O)[C@@H]1CN(Cc2cccnc2)CCN1C[C@@H](O)C[C@@H](Cc1ccccc1)C(=O)N[C@H]1c2ccccc2C[C@H]1O` as the compound, how does the logP [22] read?
A: Its logP is 2.79.

Q: For `c1ccc2c(c1)ccc1ccccc12`, which logP [23] is on record?
A: Its logP is 4.69.

Q: Which logP [11] does the source give for `CN(C)CCN(C)S(=O)(=O)c1ccc(C(C)(C)[N+](=O)[O-])c([N+](=O)[O-])c1` here?
A: Its logP is 1.42.

Q: For `S=C=Nc1ccc(-c2ccc(N=C=S)cc2)cc1`, which logP [1] is on record?
A: The logP was 5.5.

Q: Which logP [9] does the source give for `CCC1(CC)C(=O)NC(=O)N=C1OC(C)C` here?
A: Its logP is 1.86.

Q: With `Clc1cc2oc3cc(Cl)c(Cl)c(Cl)c3c2cc1Cl` as the compound, how does the logP [13] read?
A: The logP was 6.7.

Q: With `Clc1cc(Cl)c(-c2cc(Cl)c(Cl)c(Cl)c2Cl)cc1Cl` as the compound, how does the logP [23] read?
A: The logP was 7.15.

Q: For `Nc1ccc(S(=O)(=O)Nc2ccccc2)cc1`, which logP [10] is on record?
A: The logP was 1.55.

Q: For `N#CCCOc1cccc2ccccc12`, which logD ([20]; pH 6.4) is on record?
A: The logD was 2.8.

Q: Which logP [12] does the source give for `c1ccc2c(c1)Cc1ccccc1-2` here?
A: The logP was 4.2.

Q: Which logD [24] does the source give for `CCc1cnc(NS(=O)(=O)c2ccccc2)nc1` here?
A: The logD was 0.88.

Q: For `O=[N+]([O-])c1cc(C2CCCCC2)c(O)c([N+](=O)[O-])c1`, which logP [6] is on record?
A: The logP was 4.12.

Q: With `CC1(C)CC(NC(=O)N(CCCl)N=O)C(C)(C)[N+]1(C)[O-]` (configuration not stated) as the compound, how does the logP [15] read?
A: Its logP is 1.64.

Q: For `CCOc1cnc(NS(=O)(=O)c2ccccc2)nc1`, which logD [24] is on record?
A: Its logD is 0.53.

Q: With `CN1C(C(=O)Nc2ccccn2)=C(O)c2sccc2S1(=O)=O` as the compound, how does the logP [22] read?
A: Its logP is 1.9.

Q: Which logD [18] does the source give for `COc1ccc(NC(=O)CN2CCCCC2)cc1` here?
A: The logD was 2.52.

Q: With `COC(CN1CCCC1)c1ccccc1` (configuration not stated) as the compound, how does the logP [17] read?
A: Its logP is 1.88.

Q: Which logD [2] does the source give for `CCOC(=O)n1c(-c2cscn2)nc2ccccc21` here?
A: Its logD is 2.51.

Q: Which logP [25] does the source give for `Brc1cc(Br)cc(-c2cc(Br)cc(Br)c2)c1` here?
A: The logP was 7.41.

Q: For `OCCCCCn1nnc2ccccc21`, which logD [21] is on record?
A: The logD was 1.51.

Q: For `Clc1ccc(-c2ccc(Cl)c(Cl)c2)cc1Cl`, which logP [25] is on record?
A: Its logP is 6.04.
